# In EP0535528A1, “Antibacterial 5-Nitro-1-methyl-imidazolyl-3-terbutyl-2-hydroxy-aryl-carbinols” (EURORESEARCH S.r.L., priority 1991, dated 1993):
# Key:
# [1] = test system: Swiss female albino mice; assay: Oral and intraperitoneal acute toxicity in mice (LD50, Probits method); assay type: in vivo; conditions: mice
# Procedure: 20 Swiss female albino mice are used for this test of the average weight of 20 g (±2), coming from Nossan breeding .
# Cages: in Makrolon® with saw dust litter, Number of animals per cage: 5 Acclimation period: 1 week Temperature: 22°C (± 2°C) Humidity : 60%, Diet: pellets for mice produced by Nossan firm, Water ad libitum Fast before the treatment: 16 hours
# Oral by gastric route and intraperitoneal.
# The substances to be studied: EU11100, EU11102, EU11103, EU11104 are treated with 0.5% carboxymethylcellulose in spring water, for the oral administration, whereas the same substances are intraperitoneally administered in the form of a physiological solution .
# For each of the above mentioned substances, a mother suspension is prepared having a concentration in the active ingredient of 250 mg/ml for the oral administration, and analogously a mother suspension is prepared for the intraperitoneal administration having a concentration of the desired active principle of 100 mg/ml.
# The following doses are used • a) oral route: 5000 mg/kg • b) intraperitoneal route : 2000 mg/kg
# If mortality is observed at the above mentioned doses, other doses are administered in order to obtain a dose-response curve.
# 5 animals are used for every utilized concentration.
# After the administration of the above substances the animals are kept under observation for 14 days , during which the mortality and the behaviour is observed.
# LD₅₀ is determined on the base of the cumulative mortality observed in the successive 14 days after the administration by using the Probits method.
# [2] = test system: Helicobapter pylori; assay: Inhibition halos of the bacterial growth (impregnated disks on agar); assay type: cell-based; conditions: for activity against the Helicobapter pylori strains used: 10 strains; for Inhibition halo (mm), Average: average of 10 strains
# Procedure: Comparison substance: Metronidazole Solubilization of the substances : All the substances to be studied are dissolved at room temperature in DMSO.
# Some commercially available antibiogram disks are so impregnated with the above mentioned compounds that each disk has concentration equal to 10, 1, 0.1, 0.01 µg.
# 10 strains of Helicobapter pylori are used of recent clinical isolation.
# Columbia Blood Agar Base is used, containing 5% of defibrinated horse blood, 2 % of calf serum, 2 vials of Vitox per liter of medium and Vancomicine (10 µg/ml) Trimetoprim lactate(5 µg/ml) and Polimixin B (2.5 U/ml).
# 0.1 ml of a suspension of the different used strains are uniformly distributed onto Petri plates, containing 20 ml of Columbia Blood Agar base, obtained by taking a sample, by means of a platinum loop, of different colonies from a 48 hours culture, grown in anaerobiosis jars with "Gas Pack", without a catalyst and diluted into a physiological solution.
# 4 disks per plate, previously impregnated with the substances under examination, are then placed onto the agar layer of each plate.
# After 48 hours of anaerobiosis incubation, as above described, the inhibition halos of the bacterial growth, produced by the different activity of the substances inside the agar, are evaluated.
# [3] = test system: Helicobapter pylori; assay: Minimal inhibiting concentration (agar dilution); assay type: cell-based; conditions: for MIC50 / MIC90 / MIC range: 10 strains
# Procedure: Substances under examination: EU11100, EU11102, EU11103, EU11104. Comparison substance: Metronidazole Solubilization of the substances: All the substances to be studied are dissolved at room temperature in DMSO. […] 10 strains of Helicobapter pylori are used of recent clinical isolation […] The sowing of the bacteria, prepared as described in the preceding test is carried out by means a "multi-point inoculator". After 48 hours incubation under the condition described in the preceding test, the plates are examined and the Minimal Inhibiting Concentration is evaluated, namely that dose corresponding to growth absence.
smiles,measurement,setting,value
"Cn1c([N+](=O)[O-])cnc1C(O)c1cc(C(C)(C)C)cc(C(C)(C)C)c1O (stereo not shown) [EU11102, 5-nitro-1-methyl-imidazolyl-3,5-diterbutyl-2-hydroxy-phenyl-carbinol]",toxicity when intraperitoneally administered,"[1]; intraperitoneal, 2000 mg/kg",not toxic
same,toxicity when orally administered,"[1]; oral, 5000 mg/kg",not toxic
same,activity against the Helicobapter pylori strains used,[2]; 1 µg/disk,active against all the Helicobapter pylori used
same,activity against the Helicobapter pylori strains used,[2]; disk test,active against all the Helicobapter pylori strains used
same,"Inhibition halo (mm), Average",[2]; 1 µg/disk,15.1 mm
same,"Inhibition halo (mm), Average",[2]; 10 µg/disk,22.9 mm
same,Inhibition halo (mm) at the concentration (µg/disk),"[2]; strain 1, 0.01 µg/disk",0 mm
same,Inhibition halo (mm) at the concentration (µg/disk),"[2]; strain 1, 0.1 µg/disk",0 mm
same,Inhibition halo (mm) at the concentration (µg/disk),"[2]; strain 1, 1 µg/disk",15 mm
same,Inhibition halo (mm) at the concentration (µg/disk),"[2]; strain 1, 10 µg/disk",23 mm
same,Inhibition halo (mm) at the concentration (µg/disk),"[2]; strain 2, 0.01 µg/disk",0 mm
same,Inhibition halo (mm) at the concentration (µg/disk),"[2]; strain 2, 0.1 µg/disk",0 mm
same,Inhibition halo (mm) at the concentration (µg/disk),"[2]; strain 2, 10 µg/disk",22 mm
same,Inhibition halo (mm) at the concentration (µg/disk),"[2]; strain 3, 0.01 µg/disk",0 mm
same,Inhibition halo (mm) at the concentration (µg/disk),"[2]; strain 3, 0.1 µg/disk",0 mm
same,Inhibition halo (mm) at the concentration (µg/disk),"[2]; strain 3, 1 µg/disk",12 mm
same,Inhibition halo (mm) at the concentration (µg/disk),"[2]; strain 3, 10 µg/disk",22 mm
same,Inhibition halo (mm) at the concentration (µg/disk),"[2]; strain 4, 0.01 µg/disk",0 mm
same,Inhibition halo (mm) at the concentration (µg/disk),"[2]; strain 4, 0.1 µg/disk",0 mm
same,Inhibition halo (mm) at the concentration (µg/disk),"[2]; strain 4, 1 µg/disk",16 mm
same,Inhibition halo (mm) at the concentration (µg/disk),"[2]; strain 4, 10 µg/disk",24 mm
same,Inhibition halo (mm) at the concentration (µg/disk),"[2]; strain 5, 0.01 µg/disk",0 mm
same,Inhibition halo (mm) at the concentration (µg/disk),"[2]; strain 5, 0.1 µg/disk",0 mm
same,Inhibition halo (mm) at the concentration (µg/disk),"[2]; strain 5, 1 µg/disk",16 mm
same,Inhibition halo (mm) at the concentration (µg/disk),"[2]; strain 5, 10 µg/disk",22 mm
same,Inhibition halo (mm) at the concentration (µg/disk),"[2]; strain 6, 0.01 µg/disk",0 mm
same,Inhibition halo (mm) at the concentration (µg/disk),"[2]; strain 6, 0.1 µg/disk",0 mm
same,Inhibition halo (mm) at the concentration (µg/disk),"[2]; strain 6, 1 µg/disk",17 mm
same,Inhibition halo (mm) at the concentration (µg/disk),"[2]; strain 6, 10 µg/disk",25 mm
same,Inhibition halo (mm) at the concentration (µg/disk),"[2]; strain 7, 0.01 µg/disk",0 mm
same,Inhibition halo (mm) at the concentration (µg/disk),"[2]; strain 7, 0.1 µg/disk",0 mm
same,Inhibition halo (mm) at the concentration (µg/disk),"[2]; strain 7, 1 µg/disk",14 mm
same,Inhibition halo (mm) at the concentration (µg/disk),"[2]; strain 7, 10 µg/disk",21 mm
same,Inhibition halo (mm) at the concentration (µg/disk),"[2]; strain 8, 0.01 µg/disk",0 mm
same,Inhibition halo (mm) at the concentration (µg/disk),"[2]; strain 8, 0.1 µg/disk",0 mm
same,Inhibition halo (mm) at the concentration (µg/disk),"[2]; strain 8, 1 µg/disk",15 mm
same,Inhibition halo (mm) at the concentration (µg/disk),"[2]; strain 8, 10 µg/disk",23 mm
same,Inhibition halo (mm) at the concentration (µg/disk),"[2]; strain 9, 0.01 µg/disk",0 mm
same,Inhibition halo (mm) at the concentration (µg/disk),"[2]; strain 9, 0.1 µg/disk",0 mm
same,Inhibition halo (mm) at the concentration (µg/disk),"[2]; strain 9, 1 µg/disk",16 mm
same,Inhibition halo (mm) at the concentration (µg/disk),"[2]; strain 9, 10 µg/disk",24 mm
same,Inhibition halo (mm) at the concentration (µg/disk),"[2]; strain 10, 0.01 µg/disk",0 mm
same,Inhibition halo (mm) at the concentration (µg/disk),"[2]; strain 10, 0.1 µg/disk",0 mm
same,Inhibition halo (mm) at the concentration (µg/disk),"[2]; strain 10, 1 µg/disk",15 mm
same,Inhibition halo (mm) at the concentration (µg/disk),"[2]; strain 10, 10 µg/disk",23 mm
same,MIC50,[3],0.25 µg/mL
same,MIC90,[3],0.5 µg/mL
same,MIC range,[3],0.25 to 0.5 µg/mL
same,MIC,[3]; strain 1,0.5 µg/mL
same,MIC,[3]; strain 2,0.25 µg/mL
same,MIC,[3]; strain 3,0.25 µg/mL
same,MIC,[3]; strain 4,0.5 µg/mL
same,MIC,[3]; strain 5,0.25 µg/mL
same,MIC,[3]; strain 6,0.5 µg/mL
same,MIC,[3]; strain 7,0.25 µg/mL
same,MIC,[3]; strain 8,0.25 µg/mL
same,MIC,[3]; strain 9,0.25 µg/mL
same,MIC,[3]; strain 10,0.25 µg/mL
"Cc1ncc([N+](=O)[O-])n1CCO [Metronidazole, reference compound]",activity against the Helicobapter pylori strains used,[2]; 0.1 µg/disk,inactive
same,activity against the Helicobapter pylori strains used,[2]; 1 µg/disk,inactive
same,"Inhibition halo (mm), Average",[2]; 10 µg/disk,39.5 mm
same,activity against Helicobapter pylori,"[2]; general statement, at a low concentration",poorly effective
same,Inhibition halo (mm) at the concentration (µg/disk),"[2]; strain 1, 0.01 µg/disk",0 mm
same,Inhibition halo (mm) at the concentration (µg/disk),"[2]; strain 1, 0.1 µg/disk",0 mm
same,Inhibition halo (mm) at the concentration (µg/disk),"[2]; strain 1, 1 µg/disk",0 mm
same,Inhibition halo (mm) at the concentration (µg/disk),"[2]; strain 1, 10 µg/disk",45 mm
same,Inhibition halo (mm) at the concentration (µg/disk),"[2]; strain 2, 0.01 µg/disk",0 mm
same,Inhibition halo (mm) at the concentration (µg/disk),"[2]; strain 2, 0.1 µg/disk",0 mm
same,Inhibition halo (mm) at the concentration (µg/disk),"[2]; strain 2, 1 µg/disk",0 mm
same,Inhibition halo (mm) at the concentration (µg/disk),"[2]; strain 2, 10 µg/disk",33 mm
same,Inhibition halo (mm) at the concentration (µg/disk),"[2]; strain 3, 0.01 µg/disk",0 mm
same,Inhibition halo (mm) at the concentration (µg/disk),"[2]; strain 3, 0.1 µg/disk",0 mm
same,Inhibition halo (mm) at the concentration (µg/disk),"[2]; strain 3, 1 µg/disk",0 mm
same,Inhibition halo (mm) at the concentration (µg/disk),"[2]; strain 3, 10 µg/disk",45 mm
same,Inhibition halo (mm) at the concentration (µg/disk),"[2]; strain 4, 0.01 µg/disk",0 mm
same,Inhibition halo (mm) at the concentration (µg/disk),"[2]; strain 4, 0.1 µg/disk",0 mm
same,Inhibition halo (mm) at the concentration (µg/disk),"[2]; strain 4, 1 µg/disk",0 mm
same,Inhibition halo (mm) at the concentration (µg/disk),"[2]; strain 4, 10 µg/disk",42 mm
same,Inhibition halo (mm) at the concentration (µg/disk),"[2]; strain 5, 0.01 µg/disk",0 mm
same,Inhibition halo (mm) at the concentration (µg/disk),"[2]; strain 5, 0.1 µg/disk",0 mm
same,Inhibition halo (mm) at the concentration (µg/disk),"[2]; strain 5, 1 µg/disk",0 mm
same,Inhibition halo (mm) at the concentration (µg/disk),"[2]; strain 5, 10 µg/disk",42 mm
same,Inhibition halo (mm) at the concentration (µg/disk),"[2]; strain 6, 0.01 µg/disk",0 mm
same,Inhibition halo (mm) at the concentration (µg/disk),"[2]; strain 6, 0.1 µg/disk",0 mm
same,Inhibition halo (mm) at the concentration (µg/disk),"[2]; strain 6, 1 µg/disk",0 mm
same,Inhibition halo (mm) at the concentration (µg/disk),"[2]; strain 6, 10 µg/disk",41 mm
same,Inhibition halo (mm) at the concentration (µg/disk),"[2]; strain 7, 0.01 µg/disk",0 mm
same,Inhibition halo (mm) at the concentration (µg/disk),"[2]; strain 7, 0.1 µg/disk",0 mm
same,Inhibition halo (mm) at the concentration (µg/disk),"[2]; strain 7, 1 µg/disk",0 mm
same,Inhibition halo (mm) at the concentration (µg/disk),"[2]; strain 7, 10 µg/disk",32 mm
same,Inhibition halo (mm) at the concentration (µg/disk),"[2]; strain 8, 0.01 µg/disk",0 mm
same,Inhibition halo (mm) at the concentration (µg/disk),"[2]; strain 8, 0.1 µg/disk",0 mm
same,Inhibition halo (mm) at the concentration (µg/disk),"[2]; strain 8, 1 µg/disk",0 mm
same,Inhibition halo (mm) at the concentration (µg/disk),"[2]; strain 8, 10 µg/disk",40 mm
same,Inhibition halo (mm) at the concentration (µg/disk),"[2]; strain 9, 0.01 µg/disk",0 mm
same,Inhibition halo (mm) at the concentration (µg/disk),"[2]; strain 9, 0.1 µg/disk",0 mm
same,Inhibition halo (mm) at the concentration (µg/disk),"[2]; strain 9, 1 µg/disk",0 mm
same,Inhibition halo (mm) at the concentration (µg/disk),"[2]; strain 9, 10 µg/disk",38 mm
same,Inhibition halo (mm) at the concentration (µg/disk),"[2]; strain 10, 0.01 µg/disk",0 mm
same,Inhibition halo (mm) at the concentration (µg/disk),"[2]; strain 10, 0.1 µg/disk",0 mm
same,Inhibition halo (mm) at the concentration (µg/disk),"[2]; strain 10, 1 µg/disk",0 mm
same,Inhibition halo (mm) at the concentration (µg/disk),"[2]; strain 10, 10 µg/disk",37 mm
same,MIC50,[3],0.12 µg/mL
same,MIC90,[3],0.25 µg/mL
same,MIC range,[3],0.015 to 0.25 µg/mL
same,MIC,[3]; strain 1,0.25 µg/mL
same,MIC,[3]; strain 2,0.06 µg/mL
same,MIC,[3]; strain 3,0.25 µg/mL
same,MIC,[3]; strain 4,0.25 µg/mL
same,MIC,[3]; strain 5,0.015 µg/mL
same,MIC,[3]; strain 6,0.12 µg/mL
same,MIC,[3]; strain 7,0.25 µg/mL
same,MIC,[3]; strain 8,0.25 µg/mL
same,MIC,[3]; strain 9,0.12 µg/mL
same,MIC,[3]; strain 10,0.12 µg/mL
